According to US10844057B2, “Process for preparing JAK inhibitors and intermediates thereof” (priority 2018, dated 2020):
Read-outs that look alike come from different tables or passages of the source.

How the values were obtained:
[1] = tested on: TSLP-evoked TARC release in human peripheral blood mononuclear cells; assay: Inhibition of TSLP-evoked TARC release in human peripheral blood mononuclear cells; format: cell-based; conditions: human PBMC, 3 to 5 donors, TSLP 10 ng/mL, 48 hours, ELISA; read-out: pIC50 ± st. dev., inhibition of TSLP-evoked TARC release (converted)
Source text: Assay 4: Inhibition of TSLP-Evoked TARC Release in Human Peripheral Blood Mononuclear Cells
Thymic stromal lymphopoietin (TSLP) and thymus and activation-regulated chemokine (TARC) are overexpressed in asthmatic airways, and correlate with disease severity. In the lungs, TSLP may be released by bronchial epithelial cells in response to allergens and viral infections. TSLP signals through an IL-7Rα/TSLPR heterodimer found in a broad range of tissues and cell types, including epithelial cells, endothelial cells, neutrophils, macrophages, and mast cells. The binding of TSLP to its receptor induces a conformational change that activates JAK1 and JAK2 to phosphorylate various transcription factors, including STAT3 and STAT5. In immune cells, this triggers a cascade of intracellular events that result in cell proliferation, anti-apoptosis, dendritic cell migration, and production of Th2 cytokines and chemokines. In peripheral blood mononuclear cells (PBMC), TSLP has a proinflammatory effect by activating myeloid dendritic cells to attract and stimulate T cells, a process mediated by the chemoattractant TARC.
The potencies of the test compounds were measured for inhibition of TARC release.
PBMC aliquots (previously isolated from whole blood and frozen in aliquots at −80° C.) from 3 to 5 donors were thawed at 37° C. and added dropwise to 40 mL pre-warmed, sterile-filtered, complete RPMI media in 50 mL Falcon tubes. Cells were pelleted and resuspended in complete media at 2.24×10^6 cells/mL. […] Cells were allowed to rest for 1 hour at 37° C. with 5% CO2.
Compounds were received as 10 mM stock solutions in DMSO. 3.7-fold serial dilutions were performed to generate 9 concentrations of test compound in DMSO at 300× the final assay test concentration. […] 95 μL of 0.2% DMSO in complete media was added to the untreated control wells. Cells were pre-treated with compound for 1 hour at 37° C. with 5% CO2 prior to stimulation.
Immediately prior to use, an aliquot was thawed and prepared at 20× the final assay concentration in complete media. 10 μL of 20×TSLP was added to each well of PBMC, for a final assay concentration of 10 ng/mL. 10 μL of complete media was added to the unstimulated control wells. Cells were stimulated in the presence of compound for 48 hours at 37° C. with 5% CO2.
Following stimulation, the cell culture supernatants were harvested and TARC levels were detected by enzyme-linked immunosorbent assay (ELISA), using Human CCL17/TARC Quantikine ELISA Kit (R&D Systems # DDN00) according to the manufacturer's instructions.
For dose response analysis, the log [test compound (M)] was plotted versus the percent response values for each donor, and IC50 values were determined using a nonlinear regression analysis with GraphPad Prism Software using the 4-parameter sigmoidal dose-response algorithm with variable slope. Data are expressed as mean pIC50 (negative decadic logarithm IC50) values calculated from pIC50 values of individual donors and rounded to one decimal place.

[2] = molecular target: JAK2 (Homo sapiens (Human), UniProt O60674); assay: Biochemical JAK kinase assay (LanthaScreen), JAK2; conditions: converted from pIC50 using Cheng-Prusoff; ATP 3 μM
JAK2, sequence (O60674 whole entry): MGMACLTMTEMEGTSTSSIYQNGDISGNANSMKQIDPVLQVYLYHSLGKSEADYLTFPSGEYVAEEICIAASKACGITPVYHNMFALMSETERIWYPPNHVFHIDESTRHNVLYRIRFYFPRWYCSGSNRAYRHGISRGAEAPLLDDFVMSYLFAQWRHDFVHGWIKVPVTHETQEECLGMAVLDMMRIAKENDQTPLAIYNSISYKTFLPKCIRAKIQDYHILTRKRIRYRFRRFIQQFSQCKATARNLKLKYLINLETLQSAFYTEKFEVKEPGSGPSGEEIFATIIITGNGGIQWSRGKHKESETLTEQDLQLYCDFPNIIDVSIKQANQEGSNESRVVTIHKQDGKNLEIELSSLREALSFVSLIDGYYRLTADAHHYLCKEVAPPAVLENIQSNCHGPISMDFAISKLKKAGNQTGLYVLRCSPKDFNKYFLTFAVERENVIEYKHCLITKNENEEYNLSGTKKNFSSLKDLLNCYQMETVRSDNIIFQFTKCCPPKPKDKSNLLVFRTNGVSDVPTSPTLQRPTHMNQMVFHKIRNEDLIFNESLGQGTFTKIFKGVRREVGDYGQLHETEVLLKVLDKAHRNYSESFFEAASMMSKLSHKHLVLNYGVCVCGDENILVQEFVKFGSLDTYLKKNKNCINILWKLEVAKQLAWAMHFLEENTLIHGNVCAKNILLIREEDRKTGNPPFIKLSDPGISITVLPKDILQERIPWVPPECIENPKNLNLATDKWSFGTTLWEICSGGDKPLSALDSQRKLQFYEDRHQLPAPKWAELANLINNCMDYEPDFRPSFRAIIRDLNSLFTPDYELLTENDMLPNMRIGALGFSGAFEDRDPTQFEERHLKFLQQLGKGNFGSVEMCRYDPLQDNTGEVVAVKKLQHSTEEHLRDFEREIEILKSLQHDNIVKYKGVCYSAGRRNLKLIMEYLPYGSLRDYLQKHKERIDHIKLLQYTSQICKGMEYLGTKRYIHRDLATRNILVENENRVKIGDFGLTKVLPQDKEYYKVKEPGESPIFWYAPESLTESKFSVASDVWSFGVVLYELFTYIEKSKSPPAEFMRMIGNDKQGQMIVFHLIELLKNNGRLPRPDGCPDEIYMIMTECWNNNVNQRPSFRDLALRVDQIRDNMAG
Protocol: (§1) Assay 1: Biochemical JAK Kinase Assays
(§2) A panel of four LanthaScreen JAK biochemical assays (JAK1, 2, 3 and Tyk2) were carried in a common kinase reaction buffer (50 mM HEPES, pH 7.5, 0.01% Brij-35, 10 mM MgCl2, and 1 mM EGTA). Recombinant GST-tagged JAK enzymes and a GFP-tagged STAT1 peptide substrate were obtained from Life Technologies.
(§3) Serially diluted compounds were pre-incubated with each of the four JAK enzymes and the substrate in white 384-well microplates (Corning) at ambient temperature for 1 h. ATP was subsequently added to initiate the kinase reactions in 10 μL total volume, with 1% DMSO. […] Kinase reactions were allowed to proceed for 1 hour at ambient temperature before a 10 μL preparation of EDTA (10 mM final concentration) and Tb-anti-pSTAT1 (pTyr701) antibody (Life Technologies, 2 nM final concentration) in TR-FRET dilution buffer (Life Technologies) was added. The plates were allowed to incubate at ambient temperature for 1 h before being read on the EnVision reader (Perkin Elmer). Emission ratio signals (520 nm/495 nm) were recorded and utilized to calculate the percent inhibition values based on DMSO and background controls.
(§4) For dose-response analysis, percent inhibition data were plotted vs. compound concentrations, and IC50 values were determined from a 4-parameter robust fit model with the Prism software (GraphPad Software). Results were expressed as pIC50 (negative logarithm of IC50) and subsequently converted to pKi (negative logarithm of dissociation constant, Ki) using the Cheng-Prusoff equation.

[3] = Lung and plasma exposure in mice after oral aspiration; format: in vivo; conditions: mouse, other: oral aspiration, 50 µg/animal; for concentration at 5 h: Balb/c mice, 1 mg/mL, 50 μL via oral aspiration
Protocol: Adult Balb/c mice from Harlan were used in the assay. […] Animals were placed in lateral recumbency post dose and monitored for full recovery from anesthesia before being returned to their home cage. Four hours later, animals were once again briefly anesthetized and challenged with either vehicle or IL-13 (0.03 μg total dose delivered, 50 μL total volume) via oral aspiration before being monitored for recovery from anesthesia and returned to their home cage. One hour after vehicle or IL-13 administration, whole blood and lungs were collected for both pSTAT6 detection in lung homogenates using a Perkin Elmer AlphaLISA® SureFire® Ultra™ HVp-STAT6 (Tyr641) assay kit and for total drug concentration analysis in both lung and plasma. Blood samples were centrifuged (Eppendorf centrifuge, 5804R) for 4 minutes at approximately 12,000 rpm at 4° C. to collect plasma. […] Plasma and lung levels of test compound were determined by LC-MS analysis against analytical standards constructed into a standard curve in the test matrix. A lung to plasma ratio was determined as the ratio of the lung concentration in ng/g to the plasma concentration in ng/mL at 5 hours.

[4] = molecular target: Tyk2 (Homo sapiens (Human), UniProt P29597); assay: Biochemical JAK kinase assay (LanthaScreen), Tyk2; conditions: converted from pIC50 using Cheng-Prusoff; ATP 10 μM
Tyk2, sequence (P29597 whole entry): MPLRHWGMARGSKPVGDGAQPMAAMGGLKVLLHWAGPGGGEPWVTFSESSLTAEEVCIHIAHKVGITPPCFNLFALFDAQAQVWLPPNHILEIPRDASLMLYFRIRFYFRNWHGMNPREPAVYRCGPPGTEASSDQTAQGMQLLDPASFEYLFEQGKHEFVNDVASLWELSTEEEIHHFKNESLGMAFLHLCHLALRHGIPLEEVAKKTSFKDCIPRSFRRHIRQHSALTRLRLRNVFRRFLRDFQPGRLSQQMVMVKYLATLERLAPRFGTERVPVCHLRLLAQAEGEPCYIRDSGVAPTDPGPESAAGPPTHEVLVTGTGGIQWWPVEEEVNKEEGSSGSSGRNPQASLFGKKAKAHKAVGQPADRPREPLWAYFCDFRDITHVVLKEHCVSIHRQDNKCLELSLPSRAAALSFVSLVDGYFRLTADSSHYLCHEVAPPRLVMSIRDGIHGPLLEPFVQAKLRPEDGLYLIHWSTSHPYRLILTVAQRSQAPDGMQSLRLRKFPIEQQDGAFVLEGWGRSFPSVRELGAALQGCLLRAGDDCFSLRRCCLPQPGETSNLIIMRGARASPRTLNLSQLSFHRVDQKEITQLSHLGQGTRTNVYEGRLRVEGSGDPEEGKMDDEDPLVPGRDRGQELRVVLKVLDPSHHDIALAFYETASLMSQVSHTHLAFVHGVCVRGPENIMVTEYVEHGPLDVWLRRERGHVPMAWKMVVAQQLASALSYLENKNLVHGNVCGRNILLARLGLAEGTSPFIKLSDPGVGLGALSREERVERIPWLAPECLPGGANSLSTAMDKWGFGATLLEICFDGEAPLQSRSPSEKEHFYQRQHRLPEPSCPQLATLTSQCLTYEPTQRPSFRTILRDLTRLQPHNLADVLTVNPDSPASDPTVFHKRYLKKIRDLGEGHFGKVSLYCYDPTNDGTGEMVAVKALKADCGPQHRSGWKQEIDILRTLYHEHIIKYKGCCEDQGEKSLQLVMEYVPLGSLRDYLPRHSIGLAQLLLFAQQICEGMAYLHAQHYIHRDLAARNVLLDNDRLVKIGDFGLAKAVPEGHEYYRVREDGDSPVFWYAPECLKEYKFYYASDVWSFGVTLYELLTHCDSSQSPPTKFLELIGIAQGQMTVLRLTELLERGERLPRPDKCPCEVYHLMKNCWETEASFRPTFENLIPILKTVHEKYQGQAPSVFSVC
Protocol: as §1, §2, §3, §4

In the case of `CCc1cc(O)c(F)cc1-c1ccc2c(-c3nc4c([nH]3)CN(C(C)C)[C@H](C(=O)N3CC(N(C)C)C3)C4)n[nH]c2c1` [Example 8, (S)-(3-(dimethylamino)azetidin-1-yl)(2-(6-(2-ethyl-5-fluoro-4-hydroxyphenyl)-1H-indazol-3-yl)-5-isopropyl-4,5,6,7-tetrahydro-3H-imidazo[4,5-c]pyridin-6-yl)methanone], the IC50 [1] is reported as 0.1 µM, the “JAK2 pKi” value [2] is reported as 10.8 and the Kp at 5 h ([3]; Balb/c, lung and plasma, lung ng/g to plasma ng/mL, mice, read-out: Lung to Plasma ratio at 5 hr) is reported as 381. For the same compound, the concentration at 5 h ([3]; lung, read-out: Lung Concentration (ng/g) at 5 hr) was 22100 ± 5550 ng/g, the concentration at 5 h ([3]; plasma, read-out: Plasma Concentration (ng/mL) at 5 hr) was 58 ± 17 ng/mL and the “Tyk2 pKi” value [4] was 9.5.
